Test results reported in ChEMBL document CHEMBL5260849, “Current advances in Vibrio harveyi quorum sensing as drug discovery targets” (Eur J Med Chem, 2020).

Legend:
[1] = target: T1, HTH-type transcriptional regulator LuxR (Vibrio harveyi) (UniProt P21308); assay: Inhibition of LuxR quorum sensing system in Vibrio harveyi BB120 assessed as inhibition of autoinducer-2 induced luxR activity at 100 uM for 16 hrs by bioluminescence assay
T1 sequence (whole entry): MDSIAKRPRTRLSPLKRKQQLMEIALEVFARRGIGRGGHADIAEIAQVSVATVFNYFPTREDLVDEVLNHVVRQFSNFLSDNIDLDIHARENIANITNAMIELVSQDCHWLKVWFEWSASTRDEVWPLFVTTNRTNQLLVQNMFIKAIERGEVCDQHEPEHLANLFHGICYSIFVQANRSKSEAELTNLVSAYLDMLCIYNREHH

[2] = Inhibition of quorum-sensing system in Vibrio harveyi BB170 assessed as inhibition of LuxU induced bioluminescence by bioluminescence assay; parameters: concentration or dose not given beside the values; settings: concentration not given here
[3] = Inhibition of quorum-sensing system in Vibrio harveyi MM32 assessed as inhibition of AI-2 mediated bioluminescence incubated for 4 to 6 hrs by bioluminescence assay
[4] = target: T2, Autoinducer 1 sensor kinase/phosphatase LuxN (Vibrio harveyi, UniProt P0C5S6); assay: Antagonist activity at LuxN signaling in Vibrio harveyi HLS253 assessed as inhibition of 3-hydroxybutanoyl homoserine lactone induced bioluminescence by autoinducer based bioluminescence assay
T2 sequence (P0C5S6 whole entry): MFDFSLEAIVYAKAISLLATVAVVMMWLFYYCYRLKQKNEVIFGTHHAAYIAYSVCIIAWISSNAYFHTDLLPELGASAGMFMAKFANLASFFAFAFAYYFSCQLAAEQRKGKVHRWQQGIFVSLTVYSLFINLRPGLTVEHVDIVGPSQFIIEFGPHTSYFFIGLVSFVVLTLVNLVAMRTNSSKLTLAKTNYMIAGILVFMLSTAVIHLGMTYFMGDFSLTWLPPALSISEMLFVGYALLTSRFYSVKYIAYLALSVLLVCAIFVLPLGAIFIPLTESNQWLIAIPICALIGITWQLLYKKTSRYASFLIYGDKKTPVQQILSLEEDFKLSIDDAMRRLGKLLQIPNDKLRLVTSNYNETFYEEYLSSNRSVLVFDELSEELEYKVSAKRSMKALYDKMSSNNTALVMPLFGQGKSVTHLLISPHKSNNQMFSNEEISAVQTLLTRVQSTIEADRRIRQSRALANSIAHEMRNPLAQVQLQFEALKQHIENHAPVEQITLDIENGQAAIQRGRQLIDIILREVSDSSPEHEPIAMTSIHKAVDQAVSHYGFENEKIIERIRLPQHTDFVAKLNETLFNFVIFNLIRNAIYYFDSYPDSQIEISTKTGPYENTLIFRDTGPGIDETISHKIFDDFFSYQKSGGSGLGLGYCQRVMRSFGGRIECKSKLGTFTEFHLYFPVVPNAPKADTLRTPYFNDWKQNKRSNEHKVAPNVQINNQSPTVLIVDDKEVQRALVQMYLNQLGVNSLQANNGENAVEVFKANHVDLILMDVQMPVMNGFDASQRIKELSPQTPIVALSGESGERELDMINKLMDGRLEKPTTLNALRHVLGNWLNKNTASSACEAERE

[5] = target: LuxP/Q (Vibrio harveyi, UniProt P54300+P54302); assay: Antagonist activity against LuxPQ quorum sensing system in Vibrio harveyi MM32 assessed as inhibition of luminescence intensity incubated for 3 to 4 hrs by luminescence microplate reader analysis; assay type: protein-complex assay
[6] = target: LuxP/Q (Vibrio harveyi) (UniProt P54300+P54302); assay: Antagonist activity against Vibrio harveyi BB886 LuxPQ assessed as inhibition of AI-2 induced bioluminescence at 40 uM and measured after 6 hrs by bioluminescence assay; assay type: protein-complex assay
[7] = target: Autoinducer 2-binding periplasmic protein LuxP (Vibrio harveyi) (UniProt P54300); assay: Antagonist activity against LuxP signalling in Vibrio harveyi BB170 assessed as inhibition of AI-2 regulated bioluminescence at 20 to 40 uM and measured after 2.5 hrs by bioluminescence assay; settings: filed as antagonist, dose 20-40 µM
[8] = Inhibition of quorum-sensing system in Vibrio harveyi BB170 assessed as inhibition of AI-2 at 0.1 to 10 uM and measured after 24 hrs by bioluminescence assay; settings: dose 0.1-10 µM
[9] = Toxicity in […] mouse with abdominal infection assessed survival rate at 4.5 microg/g,ip and measured after 4 days; settings: in vivo, dose 4.5 µg/g, time 4 day
[10] = target: T2, Autoinducer 1 sensor kinase/phosphatase LuxN; assay: Antagonist activity against Vibrio harveyi BB120 LuxN assessed as inhibition of AI-2 regulated bioluminescence and measured after 6 hrs by bioluminescence assay
[11] = test system: Vibrio harveyi; assay: Inhibition of biofilm formation in Vibrio harveyi BB120 at 500 uM for 24 hrs by crystal violet assay; assay type: functional
[12] = target: T3, Autoinducer 1 sensor kinase/phosphatase LuxN (Vibrio harveyi) (UniProt P0C5S6); assay: Inhibition of LuxN quorum sensing signaling in Vibrio harveyi BB886 assessed as inhibition of N-acylhomoserine lactone (HAI-1) activity by measuring bioluminescence for every 20 mins by autoinducer bioassay
T3 sequence (whole entry): T2 sequence (P0C5S6 whole entry)

[13] = test system: Vibrio harveyi; assay: Inhibition of CAI-1 mediated quorum-sensing in Vibrio harveyi JMH626 assessed as inhibition of CAI-1 mediated luminescence at 2 uM by bioluminescence assay
[14] = test system: Vibrio harveyi; assay: Inhibition of Vibrio harveyi BB886 LuxS assessed as inhibition of autoinducer-2 induced QS activity at 100 uM for 16 hrs by bioluminescence assay

Chain of LuxP/Q (P54300 whole entry): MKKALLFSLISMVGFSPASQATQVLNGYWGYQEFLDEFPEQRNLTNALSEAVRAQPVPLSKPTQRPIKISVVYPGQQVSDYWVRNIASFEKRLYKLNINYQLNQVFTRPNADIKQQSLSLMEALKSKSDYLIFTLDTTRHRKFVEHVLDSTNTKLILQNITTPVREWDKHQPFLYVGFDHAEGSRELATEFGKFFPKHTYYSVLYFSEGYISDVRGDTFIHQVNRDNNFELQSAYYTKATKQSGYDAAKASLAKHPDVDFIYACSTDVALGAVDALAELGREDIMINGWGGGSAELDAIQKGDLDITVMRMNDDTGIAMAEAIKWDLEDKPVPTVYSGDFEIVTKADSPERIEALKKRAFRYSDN
Chain of LuxP/Q (P54302 whole entry): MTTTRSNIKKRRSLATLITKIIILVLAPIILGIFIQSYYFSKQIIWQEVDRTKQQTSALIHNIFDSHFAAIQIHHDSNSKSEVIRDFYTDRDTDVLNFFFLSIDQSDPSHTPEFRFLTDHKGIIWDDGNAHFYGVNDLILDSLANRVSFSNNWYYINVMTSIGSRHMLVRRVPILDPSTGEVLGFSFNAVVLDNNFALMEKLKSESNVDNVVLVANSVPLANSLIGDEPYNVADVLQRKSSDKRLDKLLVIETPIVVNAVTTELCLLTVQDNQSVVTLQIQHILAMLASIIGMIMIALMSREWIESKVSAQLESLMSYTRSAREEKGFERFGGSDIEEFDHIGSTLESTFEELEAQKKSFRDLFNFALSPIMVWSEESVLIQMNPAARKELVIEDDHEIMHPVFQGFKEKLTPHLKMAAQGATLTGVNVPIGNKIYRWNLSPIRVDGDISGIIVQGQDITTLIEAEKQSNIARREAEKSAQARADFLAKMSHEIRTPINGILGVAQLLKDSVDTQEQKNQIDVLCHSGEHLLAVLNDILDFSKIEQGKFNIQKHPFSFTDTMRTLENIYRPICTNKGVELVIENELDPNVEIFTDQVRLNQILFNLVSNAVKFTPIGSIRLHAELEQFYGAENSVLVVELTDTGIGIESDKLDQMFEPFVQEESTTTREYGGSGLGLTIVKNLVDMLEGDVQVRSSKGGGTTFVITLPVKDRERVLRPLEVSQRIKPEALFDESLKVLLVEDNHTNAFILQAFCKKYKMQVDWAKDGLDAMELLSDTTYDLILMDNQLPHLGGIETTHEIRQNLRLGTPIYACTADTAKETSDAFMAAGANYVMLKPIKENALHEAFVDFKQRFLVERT
Chain of Autoinducer 2-binding periplasmic protein LuxP (Vibrio harveyi) (P54300 whole entry): as the sequence (P54300 whole entry) above

## CCCCCCCC/C=C/C=O
[1]
  inhibition: 94%

## O=c1c(O)c(-c2ccc(O)c(O)c2)oc2cc(O)cc(O)c12
[2]
  inhibition: > 99%

## Brc1ccc2ncsc2c1
[3]
  IC50: 88 µM

## COc1ccc(C2CC(=O)c3c(O)cc(O[C@@H]4O[C@H](CO[C@@H]5O[C@@H](C)[C@H](O)[C@@H](O)[C@H]5O)[C@@H](O)[C@H](O)[C@H]4O)cc3O2)cc1O (some centres not stated)
[2]
  inhibition: 10%

## O=C(c1ccc(O)cc1)c1ccc(S(=O)(=O)c2ccc(O)cc2)cc1
[4]
  IC50: 2.6 µM

## CC1=CCn2nc(N)c(/N=N/c3ccccc3)c2N1
[3]
  IC50: 19.8 µM

## COc1ccccc1/C=C/C=O
[1]
  inhibition: 14%

## N#Cc1ccc(B(O)O)cc1
[5]
  IC50: 6 µM

## CC(=O)CCc1ccccc1
[1]
  inhibition: 13%

## OB(O)c1ccc(OCc2ccccc2)cc1
[5]
  IC50: 4 µM

## CCCCC/C=C/C=O
[1]
  inhibition: 71%

## CCCCCCCCC/C=C/C=O
[1]
  inhibition: 87%

## O=C/C=C/c1ccc(Cl)c(C(F)(F)F)c1
[1]
  inhibition: 97%

## COc1ccc(CCC(=O)N[C@@H]2[C@@H](CO)OC(OC)[C@@H]2O)cc1 (some centres not stated)
[6]; filed as antagonist
  inhibition: 40%

## CCCCCCCCCC/C=C/C=O
[1]
  inhibition: 56%

## COc1ccc(/C=C/C=O)cc1
[1]
  inhibition: 34%

## O=C/C=C/c1ccc([N+](=O)[O-])cc1
[1]
  inhibition: 33%

## O=C1CC(c2ccc(O)cc2)Oc2cc(O)cc(O)c21 (configuration not stated)
[2]
  inhibition: 80%

## CSc1nccc(Oc2ccccc2Cl)n1
[3]
  IC50: 3.42 µM

## CC(C)CC(=O)C(=O)C(O)CO (configuration not stated)
[7]
  inhibition: 50%

## COc1ccc(-c2cc(=O)c3c(OC)c(OC)c(OC)cc3o2)cc1OC
[2]
  inhibition: 60%

## NC(=S)CS(=O)(=O)c1cccs1
[6]; filed as antagonist
  inhibition: 60%

## CCCCC/C=C\C/C=C\CCCCCCCC(=O)O
[8]
  inhibition: > 99%

## CCCCC1=C(Br)/C(=C/Br)OC1=O
[9]
  survival at 96 h: 90%

## CC(=O)C1=CCCCC1
[1]
  inhibition: 16%

## O=C(O)c1ccc(-c2c(Cl)cc([N+](=O)[O-])cc2Cl)o1
[3]
  IC50: 40.1 µM

## COc1ccc(C2CC(=O)c3c(O)cc(O[C@@H]4O[C@H](CO)[C@@H](O)[C@H](O)[C@H]4O[C@@H]4O[C@@H](C)[C@H](O)[C@@H](O)[C@H]4O)cc3O2)cc1O (some centres not stated)
[2]
  inhibition: > 20%

## CCCCC/C=C/C(C)=O
[1]
  inhibition: 100%

## CCCCCC/C=C/C(=O)OC
[1]
  inhibition: 59%

## Nc1ncnc2c1ncn2[C@@H]1O[C@H](CO)[C@@H](N)[C@H]1O
[10]
  IC50: 2.9 µM

## Cc1ccc(B(O)O)c(F)c1
[5]
  IC50: 4 µM

## Cn1cnnc1SCC(=O)Nc1nc2ccccc2s1
[3]
  IC50: 5.51 µM

## CC(C)(C)S(=O)(=O)CC#N
[3]
  IC50: 110 µM

## C[C@@H]1O[C@@H](O[C@H]2[C@H](Oc3cc(O)c4c(c3)OC(c3ccc(O)c(O)c3)CC4=O)O[C@H](CO)[C@@H](O)[C@@H]2O)[C@H](O)[C@H](O)[C@H]1O (some centres not stated)
[2]
  inhibition: > 20%

## CC/C=C/C=O
[1]
  inhibition: 58%

## CCCCCCCC/C=C\CCCCCCCC(=O)O
[8]
  inhibition: > 75%

## COc1cc(/C=C/C(=O)c2c(O)cc(O)cc2OC)ccc1O
[11]
  inhibition at 500 µM: 60%

## O=C/C=C/c1ccccc1
[1]
  inhibition: 65%

## Cc1ccc(B(O)O)cc1F
[5]
  IC50: 9 µM

## CCCC/C=C/C(C)=O
[1]
  inhibition: 80%

## CS(=O)(=O)/C=C/c1ccccc1
[1]
  inhibition: 73%

## C[C@@H]1O[C@@H](O[C@H]2[C@H](Oc3cc(O)c4c(c3)OC(c3ccc(O)cc3)CC4=O)O[C@H](CO)[C@@H](O)[C@@H]2O)[C@H](O)[C@H](O)[C@H]1O (some centres not stated)
[2]
  inhibition: 40%

## O=C/C=C/c1ccccc1[N+](=O)[O-]
[1]
  inhibition: 62%

## CCC/C=C/C=O
[1]
  inhibition: 35%

## Brc1ccc(-c2cnco2)cc1
[3]
  IC50: 60 µM

## O=c1c(O)c(-c2ccc(O)cc2)oc2cc(O)cc(O)c12
[2]
  inhibition: > 99%

## COc1cccc(/C=C/C(=O)N[C@H]2[C@@H](O)[C@H](n3cnc4c(N)ncnc43)O[C@@H]2CO)c1
[6]
  inhibition: 20%

## C/C(=C\COc1c2ccoc2cc2oc(=O)ccc12)CCC(O)C(C)(C)O (configuration not stated)
[12]
  inhibition: 96.7%

## CSC1=CS(=O)(=O)c2ccccc21
[3]
  IC50: 41 µM

## COc1cc(O)cc([C@@H]2CC(=O)c3c(OC)cc(O)cc3O2)c1
[11]
  inhibition at 500 µM: 68%

## Fc1ccccc1-c1ccc(CNCc2ccco2)o1
[3]
  IC50: 14.8 µM

## CC(C)C(=O)C(=O)C(O)CO (configuration not stated)
[7]
  inhibition: 50%

## COc1ccc(CCC(=O)N[C@H]2[C@@H](O)[C@H](n3cnc4c(N)ncnc43)O[C@@H]2CO)cc1
[6]; filed as antagonist
  inhibition: 80%

## CCCCCCCCCCCCCCCCCC(=O)O
[8]
  inhibition: > 25%

## CCCC/C=C/C(=O)O
[1]
  inhibition: 36%

## CCCC/C=C/C=O
[1]
  inhibition: 55%

## CC(C)=CCC/C(C)=C/COc1c2ccoc2cc2oc(=O)ccc12
[12]
  inhibition: 96.7%

## CC(=O)/C=C/c1ccccc1
[1]
  inhibition: 78%

## CCCCCCC/C=C/C=O
[1]
  inhibition: 90%

## NC(=O)/C=C/c1ccccc1
[1]
  inhibition: 61%

## CCCCCCC[C@@H](C/C=C/CCC(=O)O)OC
[13]
  inhibition: 100%

## CCCCCC/C=C/C=O
[1]
  inhibition: 100%

## [N-]=[N+]=N[C@H]1[C@@H](O)[C@H](n2cnc3c(N)ncnc32)O[C@@H]1CO
[10]
  IC50: 2.7 µM

## O=c1cc(-c2ccc(O)cc2)oc2cc(O)cc(O)c12
[2]
  inhibition: 60%

## CC(=O)N1CCc2cc(S(=O)(=O)NC(CC(C)C)C(=O)CCc3ccc(O)cc3)ccc21 (configuration not stated)
[4]
  IC50: 2.7 µM

## O=C/C=C/c1ccc(Cl)c(Cl)c1
[1]
  inhibition: 99%

## COc1ccc(CCC(=O)NC[C@H]2[C@@H](O)[C@H](n3cnc4c(N)ncnc43)O[C@@H]2CO)cc1
[6]
  inhibition: 20%

## CCCCCCCCCCCCCCCC(=O)O
[8]
  inhibition: 25%

## COC(=O)c1ccc(B(O)O)cc1
[5]
  IC50: 5 µM
[6]; filed as antagonist
  inhibition: > 80%

## O=C/C=C/c1c(F)c(F)c(F)c(F)c1F
[1]
  inhibition: 95%

## NC(=S)CS(=O)(=O)c1ccccn1
[3]
  IC50: 55 µM

## CCCCCC/C=C/C(=O)CO
[1]
  inhibition: 17%

## CCCCCC/C=C/C(C)=O
[1]
  inhibition: 100%

## CN(C)c1ccc(/C=C/C=O)cc1
[1]
  inhibition: 17%

## O=C1C=C/C(=C/Br)O1
[14]
  inhibition: 96%

## C=CCOC(=O)C1=CS(=O)(=O)c2ccccc21
[3]
  IC50: 3.06 µM
